In patent publication US8044070B2, “Heteroaryloxy nitrogenous saturated heterocyclic derivative” (MSD K.K., priority 2003, dated 2011):
pIC50: −log10 of the molar value. Where two headings read alike, the source gives them in different places.

Legend:
histamine-3 receptor [1] = biological target: T1, histamine-3 receptor (Homo sapiens, UniProt Q9Y5N1); experiment: Histamine analogue-binding inhibition test ([3H]N-α-methylhistamine binding to membrane specimen); settings: membrane of histamine-3 receptor expressing cells, 25° C., 2 hours; read-out: 50% inhibitory concentration (IC50) to specific N-α-methylhistamine binding
T1 construct: expressed in transfected cells; host or cells: HEK293 and CHO-K1 (membrane specimen)
T1 sequence (Q9Y5N1 whole entry): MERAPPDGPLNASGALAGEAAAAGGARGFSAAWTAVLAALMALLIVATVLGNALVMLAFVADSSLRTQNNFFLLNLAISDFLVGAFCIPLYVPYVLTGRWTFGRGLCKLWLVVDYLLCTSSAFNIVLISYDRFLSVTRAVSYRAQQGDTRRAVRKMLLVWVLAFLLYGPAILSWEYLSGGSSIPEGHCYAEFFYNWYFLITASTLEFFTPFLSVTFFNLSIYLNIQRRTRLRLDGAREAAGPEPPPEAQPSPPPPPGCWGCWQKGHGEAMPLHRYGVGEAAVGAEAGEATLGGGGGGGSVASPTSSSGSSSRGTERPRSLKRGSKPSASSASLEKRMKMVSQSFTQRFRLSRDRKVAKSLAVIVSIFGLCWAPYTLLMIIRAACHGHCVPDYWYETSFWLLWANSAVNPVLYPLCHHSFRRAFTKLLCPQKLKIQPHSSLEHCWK
Excerpt: (§1) A cDNA sequence coding for a human histamine-3 receptor [see International Patent Application WO00/39164) was cloned with expression vectors pCR2.1, pEF1x (by Invitrogen) and pCI-neo (by Promega). The resulting expression vector was transfected into host cells, HEK293 and CHO-K1 (American Type Culture Collection), according to a cationic lipid process [see Proceedings of the National Academy of Sciences of the United States of America, Vol., 84, p. 7413 (1987)] to obtain histamine-3 receptor expression cells.
A membrane specimen prepared from the cells having expressed a histamine-3 receptor was incubated in an assay buffer (50 mM Tris buffer, pH 7.4) along with a test compound and 20,000 cpm of [^3H]-α-methylhistamine (by NEN) therein at 25° C. for 2 hours, and then filtered through a glass filter GF/C. This was washed with 50 mM Tris buffer (ph 7.4), and the radioactivity on the glass filter was measured. The non-specific binding was determined in the presence of 10 μM thioperamide (by SIGAM), and the 50% inhibitory concentration (IC50) of the test compound to specific N-α-methylhistamine binding was calculated [see Molecular Pharmacology, Vol. 55, p. 1101 (1999)].

histamine-3 receptor [2] = biological target: T1, histamine-3 receptor; experiment: Histamine analogue-binding inhibition test ([35S]GTPγS binding in presence of R-methylhistamine, SPA); assay type: biochemical; settings: 20 nM R-methylhistamine, 25° C., 3 hours; read-out: IC50 (nM) to specific [35S]GTPγS binding
Excerpt: as §1
A membrane specimen prepared from the cells having expressed a histamine-3 receptor was incubated in an assay buffer (50 mM Tris buffer, 100 mM NaCl, 5 mM MgCl2, pH 7.4) along with a test compound, 20 nM R-methylhistamine (histamine analogue, by Sigma), 10 μM GDP (guanine-nucleotide diphosphate, by Sigma), […] [^35S] GTPγS (guanine-nucleotide triphosphate analogue, by Amersham) and SPA resin (wheatgerm agglutinin SPA beads, by Amersham) therein on a 96-well optiplate (by Packard) at 25° C. for 3 hours and then centrifuged at 3,000 rpm, and its activity was counted with Topcount (by Packard). The non-specific binding was determined in the presence of 10 μM GTPγS (by Sigma), and the 50% inhibitory concentration (IC50) of the test compound to specific N[^35S] GTPγS binding was calculated [see British Journal of Pharmacology, Vol. 135, p. 383 (2002)].

[3] = Test for internal kinetics; assay type: in vivo, rat; settings: SD male rats, oral or intravenous administration
Method: A test compound was orally or intravenously administered to SD male rats (7 to 10 weeks-age, 200 to 400 g) kept away from eating and drinking overnight, and using a heparinization capillary within a predetermined period of time, about 100 μl of the blood was collected from them via their tail vein. The blood was centrifuged (4° C., 6000 rpm, 10 minutes) to collect its plasma. Ethanol (including an internal standard substance) was added to the plasma in an amount of 3 times that of the plasma, and stirred, and left statically at −20° C. for 20 minutes, and then this was centrifuged (4° C., 10,000 rpm, 10 minutes). The supernatant was analyzed through LC/MS/MS, and the plasma concentration of the compound was quantified according to a relative calibration curve method.

[4] = Brain/cerebrospinal fluid migration test; assay type: in vivo, rat; settings: SD male rats, 2 hours after oral administration (10 mg/kg); for concentration at 2 h: rat
Excerpt: A test compound was orally or intravenously administered to SD male rats (7 to 10 weeks-age, 200 to 400 g), and while anesthetized with ether for a predetermined period of time, the whole blood was collected from the abdominal aorta of the rats, using a heparin-processed syringe. Next, the brain skin was cut opened and a 30 G needle for dental use was pierced between the cervical vertebrae and inserted into the subarachnoid cavity. Through the tube connected with the dental 30 G needle, from 50 to 100 μl of the cerebrospinal fluid was collected into a 1-ml syringe, and then the brain was taken out. The blood sample was centrifuged (4° C., 6000 rpm, 10 minutes), and the resulting plasma was stirred with ethanol (including an internal standard substance) added thereto in an amount of 3 times the plasma. 2 ml of water was added to the brain sample and homogenized, and a part of the resulting mixture was stirred with ethanol (including an internal standard substance) added thereto in an amount of 3 times the mixture. These samples were kept at −20° C. for 20 minutes, and then centrifuged (4° C., 12,000 g, 10 minutes), and the resulting supernatant was analyzed through LC/MS/MS. According to a relative calibration curve method, the concentration of the test compound in the plasma, the brain and the cerebrospinal fluid was quantified.

N#Cc1ccc(-c2cnc(OC3CCN(C4CCCC4)CC3)nc2)cc1 [Example 1, 2-(1-cyclopentylpiperidin-4-yloxy)-5-(4-cyanophenyl)pyrimidine]
pIC50 (histamine-3 receptor [1]): 7.82
IC50 (histamine-3 receptor [2]): 1.9 nM
half-value period in blood [3]: 5.3 h
bioavailability ([3]; rat, plasma): 53%
brain concentration [4]: 6.18 nmol/g
concentration at 2 h ([4]; cerebrospinal fluid, read-out: cerebrospinal fluid concentration): 128 nM
concentration at 2 h ([4]; plasma, read-out: plasma concentration): 540 nM

O=C(c1ccc(-c2cnc(OC3CCN(C4CCCC4)CC3)nc2)cc1)N1CCCC1 [Example 11, 2-(1-cyclopentylpiperidin-4-yloxy)-5-{4-(pyrrolidin-1-ylcarbonyl)phenyl}pyrimidine]
IC50 (histamine-3 receptor [2]): 1.2 nM

FC(F)(F)c1ccc(-c2cnc(OC3CCN(C4CCCC4)CC3)nc2)cc1 [Example 23, 2-(1-cyclopentylpiperidin-4-yloxy)-5-(4-trifluoromethylphenyl)pyrimidine]
IC50 (histamine-3 receptor [2]): 1.4 nM

CS(=O)(=O)c1ccc(-c2cnc(OC3CCN(C4CCCC4)CC3)nc2)cc1 [Example 37, 2-(1-cyclopentylpiperidin-4-yloxy)-5-{4-(methylsulfonyl)phenyl}pyrimidine]
IC50 (histamine-3 receptor [2]): 1.3 nM

c1cn2cnnc2cc1-c1cnc(OC2CCN(C3CCCC3)CC2)nc1 [Example 60, 2-(1-cyclopentylpiperidin-4-yloxy)-5-(1,2,4-triazolo[4,3,a]pyridin-7-yl)pyrimidine]
IC50 (histamine-3 receptor [2]): 1.2 nM

Cn1cc(-c2ccc(OC3CCN(C4CCC4)CC3)nc2)ccc1=O [Example 65, 2-(1-cyclobutylpiperidin-4-yloxy)-5-{1-methyl-1H-pyridin-2-on-5-yl}pyridine]
IC50 (histamine-3 receptor [2]): 0.45 nM

CC(C)N1CCC(Oc2ccc(-c3ccc(=O)n(C)c3)cn2)CC1 [Example 68, 2-(1-isopropylpiperidin-4-yloxy)-5-{1-methyl-1H-pyridin-2-on-5-yl}pyridine]
IC50 (histamine-3 receptor [2]): 1.4 nM
